The results in this text go back to patent US20230286970A1, “NOVEL OXADIAZOLE-BASED SELECTIVE HDAC6 INHIBITORS” (ITALFARMACO S.P.A., priority 2020, published 2023).

One data set concerns the target recombinant human HDAC6 (Homo sapiens (Human), UniProt Q9UBN7). Nature of the data set: Enzymatic screening, HDAC6 inhibition (fluorogenic FdL_G substrate). The data set is classed as biochemical. The method in brief: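 Enzyme was preincubated with compound (8 doses, triplicate, 1% DMSO) in 25 mM Tris-HCl pH 8, 130 mM NaCl, 0.05% Tween-20, 10% glycerol, with BSA. A FLUOR DE LYS-Green substrate was then added, and fluorescence was read after developer plus 2 μM TSA.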

The nature of data set [1]: Stability in human plasma. To be noted: after 4 hours, 37° C.
A short description of data set [2]: Stability to Phase I metabolism in rat S9 liver fraction. To be noted: after 90 minutes, 37° C.
The target in a further data set is recombinant human HDAC1 (Homo sapiens (Human), UniProt Q13547). The data set can be described thus: Enzymatic screening, HDAC1 inhibition (fluorogenic FdL_G substrate). The data set is classed as biochemical. The method in brief:
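Recombinant human HDAC1 inhibition was measured fluorometrically using the FLUOR DE LYS-Green (FdL_G) substrate. Compounds at 8 doses (1% DMSO final) in Tris-HCl pH 8 buffer with NaCl, Tween-20 and glycerol were preincubated in triplicate with enzyme and 1 mg/mL BSA, then given substrate. Developer I plus 2 μM TSA was added, and fluorescence read after 25 minutes in the dark.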

The nature of data set [3]: Stability to Phase I metabolism in human S9 liver fraction. Conditions: after 90 minutes, 37° C.
The nature of a further data set: Stability in rat plasma. To be noted: after 4 hours, 37° C.

Chain of recombinant human HDAC6 (Q9UBN7 whole entry): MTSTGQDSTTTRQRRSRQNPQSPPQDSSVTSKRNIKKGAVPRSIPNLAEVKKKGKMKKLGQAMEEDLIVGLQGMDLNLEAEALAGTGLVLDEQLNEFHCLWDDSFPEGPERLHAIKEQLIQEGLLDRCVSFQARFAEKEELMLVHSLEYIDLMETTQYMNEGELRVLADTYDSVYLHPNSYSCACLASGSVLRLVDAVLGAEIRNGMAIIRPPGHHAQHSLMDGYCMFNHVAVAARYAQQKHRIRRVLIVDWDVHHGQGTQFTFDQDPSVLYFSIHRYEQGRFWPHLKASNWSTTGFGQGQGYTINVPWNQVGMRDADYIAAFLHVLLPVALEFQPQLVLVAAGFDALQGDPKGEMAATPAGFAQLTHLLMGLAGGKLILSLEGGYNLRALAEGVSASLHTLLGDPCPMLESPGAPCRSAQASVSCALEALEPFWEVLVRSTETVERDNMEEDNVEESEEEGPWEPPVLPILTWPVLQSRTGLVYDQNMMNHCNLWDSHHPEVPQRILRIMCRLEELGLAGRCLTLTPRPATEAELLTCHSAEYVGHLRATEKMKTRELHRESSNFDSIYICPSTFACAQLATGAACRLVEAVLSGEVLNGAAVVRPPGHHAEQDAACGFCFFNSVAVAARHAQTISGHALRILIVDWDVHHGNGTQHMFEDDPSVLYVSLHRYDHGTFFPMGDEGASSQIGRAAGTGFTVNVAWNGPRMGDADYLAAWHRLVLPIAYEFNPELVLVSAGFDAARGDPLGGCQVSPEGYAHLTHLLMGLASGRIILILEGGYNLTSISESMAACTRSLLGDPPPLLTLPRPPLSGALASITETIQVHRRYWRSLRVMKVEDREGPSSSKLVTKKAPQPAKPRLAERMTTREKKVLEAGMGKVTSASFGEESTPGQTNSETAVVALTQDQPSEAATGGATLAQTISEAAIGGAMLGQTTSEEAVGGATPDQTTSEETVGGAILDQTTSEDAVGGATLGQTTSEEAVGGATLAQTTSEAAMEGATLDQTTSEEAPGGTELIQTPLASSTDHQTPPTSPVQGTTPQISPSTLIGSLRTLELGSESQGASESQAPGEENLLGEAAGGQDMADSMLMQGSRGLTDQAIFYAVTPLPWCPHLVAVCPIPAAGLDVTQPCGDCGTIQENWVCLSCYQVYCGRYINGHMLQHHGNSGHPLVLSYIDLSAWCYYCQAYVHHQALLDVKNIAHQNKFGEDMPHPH
Chain of recombinant human HDAC1 (Q13547 whole entry): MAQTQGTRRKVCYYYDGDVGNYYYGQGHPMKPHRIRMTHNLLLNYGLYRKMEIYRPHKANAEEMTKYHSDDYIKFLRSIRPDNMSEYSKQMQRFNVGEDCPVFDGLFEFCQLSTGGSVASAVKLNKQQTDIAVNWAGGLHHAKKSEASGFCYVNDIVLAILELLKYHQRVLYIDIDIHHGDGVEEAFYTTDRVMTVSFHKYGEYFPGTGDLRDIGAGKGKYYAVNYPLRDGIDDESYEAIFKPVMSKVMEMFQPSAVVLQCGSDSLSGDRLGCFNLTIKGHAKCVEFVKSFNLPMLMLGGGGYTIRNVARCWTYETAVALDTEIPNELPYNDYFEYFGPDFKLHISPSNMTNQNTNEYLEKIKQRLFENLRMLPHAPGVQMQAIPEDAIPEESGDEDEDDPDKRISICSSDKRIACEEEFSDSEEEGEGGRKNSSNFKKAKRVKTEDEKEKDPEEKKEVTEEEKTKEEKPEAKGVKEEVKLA

Broadly, the IC50 is the concentration needed to halve the response being measured. Regarding `O=C(Nc1cccc(-c2cn(Cc3c(F)cc(-c4nnc(C(F)F)o4)cc3F)nn2)c1)N1CCOCC1` [compound 78, N-(3-(1-(4-(5-(difluoromethyl)-1,3,4-oxadiazol-2-yl)-2,6-difluorobenzyl)-1H-1,2,3-triazol-4-yl)phenyl)morpholine-4-carboxamide], the IC50 on recombinant human HDAC6 is 32 nM; on recombinant human HDAC1, > 200000 nM. Also, the “residual percentage in HUMAN PLASMA” value in data set [1] worked out at 62%. Besides, in data set [2], the “residual percentage in RAT S9 FRACTION” value came to 78%. For the same compound, the “residual percentage in HUMAN S9 FRACTION” value in data set [3] is given as 94%.

As to `COc1ncc(NCc2ccc(-c3cn(Cc4ccc(-c5nnc(C(F)F)o5)cc4)nn3)cc2)cc1C(N)=O` [compound 138, 5-((4-(1-(4-(5-(difluoromethyl)-1,3,4-oxadiazol-2-yl)benzyl)-1H-1,2,3-triazol-4-yl)benzyl)amino)-2-methoxynicotinamide], the IC50 at recombinant human HDAC6 was 54 nM; on recombinant human HDAC1, > 200000 nM. Besides, in data set [1], the “residual percentage in HUMAN PLASMA” value is on record as 92%. Further, the “residual percentage in RAT S9 FRACTION” value in data set [2] was determined as 66%. Further, in data set [3], the “residual percentage in HUMAN S9 FRACTION” value was found to be 70%.

In the case of `C[C@@H](c1ccc(-c2nnc(C(F)F)o2)cc1)n1cc(-c2ccc(N)nc2)nn1` [compound 255, (S)-5-(1-(1-(4-(5-(difluoromethyl)-1,3,4-oxadiazol-2-yl)phenyl)ethyl)-1H-1,2,3-triazol-4-yl)pyridin-2-amine], the “residual percentage in RAT PLASMA” value in “Stability in rat plasma” came to 57%. For the same compound, the “residual percentage in HUMAN PLASMA” value in data set [1] was determined as 91%. Further, the “residual percentage in RAT S9 FRACTION” value in data set [2] is 76%. For the same compound, in data set [3], the “residual percentage in HUMAN S9 FRACTION” value is on record as 98%.

For `CN(C)c1nc2cc(-c3nnn(Cc4ccc(-c5nnc(C(F)F)o5)cc4)n3)ccc2o1` [compound 249, 5-(2-(4-(5-(difluoromethyl)-1,3,4-oxadiazol-2-yl)benzyl)-2H-tetrazol-5-yl)-N,N-dimethylbenzo[d]oxazol-2-amine], the IC50 at recombinant human HDAC6 is 277 nM; at recombinant human HDAC1, > 200000 nM.

On to `O=C(Nc1cccc(-c2cn(Cc3ncc(-c4nnc(C(F)F)o4)cc3F)nn2)c1)N1CCOCC1` [compound 336, N-[3-[1-[[5-[5-(difluoromethyl)-1,3,4-oxadiazol-2-yl]-3-fluoropyridin-2-yl]methyl]triazol-4-yl]phenyl]morpholine-4-carboxamide], for which the 50% inhibitory concentration (IC50) is 57 nM on recombinant human HDAC6 and > 1e+06 nM on recombinant human HDAC1.

Take `CC(C)(c1ccncc1)c1nnn(Cc2ccc(-c3nnc(C(F)F)o3)cc2)n1` [compound 219, 2-(difluoromethyl)-5-(4-((5-(2-(pyridin-4-yl)propan-2-yl)-2H-tetrazol-2-yl)methyl)phenyl)-1,3,4-oxadiazole]: the IC50 at recombinant human HDAC6 is 156 nM; on recombinant human HDAC1 it was > 200000 nM.

For `Fc1cc(-c2nnc(C(F)F)o2)ccc1Cn1nnc(-c2cccc(-c3nc4c([nH]3)CCNC4)c2)n1` [compound 354, 2-(difluoromethyl)-5-[3-fluoro-4-[[5-[3-(4,5,6,7-tetrahydro-1H-imidazo[4,5-c]pyridin-2-yl)phenyl]tetrazol-2-yl]methyl]phenyl]-1,3,4-oxadiazole], the results for the IC50 at recombinant human HDAC6 and on recombinant human HDAC1 were 25 nM and 183000 nM, respectively.

Turning to `O=C(NCc1ccco1)c1cccc(-c2nnn(Cc3ccc(-c4nnc(C(F)F)o4)cc3)n2)c1` [compound 96, 3-(2-(4-(5-(difluoromethyl)-1,3,4-oxadiazol-2-yl)benzyl)-2H-tetrazol-5-yl)-N-(furan-2-ylmethyl)benzamide], the IC50 at recombinant human HDAC6 is 37 nM; on recombinant human HDAC1, > 200000 nM.

For `NCc1ccc(-c2cn(Cc3ccc(-c4nnc(C(F)F)o4)cc3)nn2)cn1` [compound 155, (5-(1-(4-(5-(difluoromethyl)-1,3,4-oxadiazol-2-yl)benzyl)-1H-1,2,3-triazol-4-yl)pyridin-2-yl)methanamine], the IC50 was 69 nM at recombinant human HDAC6 and > 200000 nM at recombinant human HDAC1.

With `CN1CC(=O)Nc2cc(-c3cn(Cc4c(F)cc(-c5nnc(C(F)F)o5)cc4F)nn3)ccc2C1` [Compd. 237, 8-(1-(4-(5-(difluoromethyl)-1,3,4-oxadiazol-2-yl)-2,6-difluorobenzyl)-1H-1,2,3-triazol-4-yl)-4-methyl-1,3,4,5-tetrahydro-2H-benzo[e][1,4]diazepin-2-one], the IC50 at recombinant human HDAC6 is 210 nM; on recombinant human HDAC1, > 200000 nM.

In the case of `Cn1c(N)nc2cc(-c3cn(Cc4ccc(-c5nnc(C(F)F)o5)cc4Cl)nn3)ccc21` [compound 344, 5-[1-[[2-chloro-4-[5-(difluoromethyl)-1,3,4-oxadiazol-2-yl]phenyl]methyl]triazol-4-yl]-1-methylbenzimidazol-2-amine], the values for the IC50 at recombinant human HDAC6 and on recombinant human HDAC1 were 47 nM and 84400 nM, respectively.

On to `FC(F)c1nnc(-c2ccc(Cn3nnc(-c4cccc5cnccc45)n3)cc2)o1` [compound 153, 2-(difluoromethyl)-5-(4-((5-(isoquinolin-5-yl)-2H-tetrazol-2-yl)methyl)phenyl)-1,3,4-oxadiazole], for which the IC50 on recombinant human HDAC6 is 66 nM; on recombinant human HDAC1, > 200000 nM.

For the compound `O=C(Nc1cc(-c2nnn(Cc3ccc(-c4nnc(C(F)F)o4)cc3)n2)ccc1Sc1ccccc1)N1CCOCC1` [compound 258, N-(5-(2-(4-(5-(difluoromethyl)-1,3,4-oxadiazol-2-yl)benzyl)-2H-tetrazol-5-yl)-2-(phenylthio)phenyl)morpholine-4-carboxamide], the IC50 on recombinant human HDAC6 was 410 nM; at recombinant human HDAC1, > 200000 nM.

In the case of `COc1ncc(NCc2ccc(-c3cn(Cc4c(F)cc(-c5nnc(C(F)F)o5)cc4F)nn3)cc2)cc1C(N)=O` [Compd. 154, 5-((4-(1-(4-(5-(difluoromethyl)-1,3,4-oxadiazol-2-yl)-2,6-difluorobenzyl)-1H-1,2,3-triazol-4-yl)benzyl)amino)-2-methoxynicotinamide], the IC50 was 67 nM at recombinant human HDAC6 and > 200000 nM on recombinant human HDAC1.

Consider `Cc1ncccc1-c1cn(Cc2ccc(-c3nnc(C(F)F)o3)cn2)nn1` [compound 115, 2-(difluoromethyl)-5-(6-((4-(2-methylpyridin-3-yl)-1H-1,2,3-triazol-1-yl)methyl)pyridin-3-yl)-1,3,4-oxadiazole], for which the IC50 was 43 nM at recombinant human HDAC6 and > 200000 nM at recombinant human HDAC1.

With `O=C(c1cccc(-c2nnn(Cc3c(F)cc(-c4nnc(C(F)F)o4)cc3F)n2)c1)N1CCOCC1` [compound 112, (3-(2-(4-(5-(difluoromethyl)-1,3,4-oxadiazol-2-yl)-2,6-difluorobenzyl)-2H-tetrazol-5-yl)phenyl)(morpholino)methanone], the IC50 is 42 nM at recombinant human HDAC6 and > 200000 nM at recombinant human HDAC1.

Take `Nc1ccc(-c2cn(C(Cc3ccc(Cl)cc3)c3ccc(-c4nnc(C(F)F)o4)cc3)nn2)cn1` (stereo not drawn) [Compd. 231, 5-(1-(2-(4-chlorophenyl)-1-(4-(5-(difluoromethyl)-1,3,4-oxadiazol-2-yl)phenyl)ethyl)-1H-1,2,3-triazol-4-yl)pyridin-2-amine]: the IC50 on recombinant human HDAC6 is 197 nM; on recombinant human HDAC1 it was > 200000 nM.

Regarding `Fc1cc(-c2nnc(C(F)F)o2)c(F)cc1Cn1nnc(-c2cccc(-c3nc4c([nH]3)CCNC4)c2)n1` [compound 367, 2-(difluoromethyl)-5-[2,5-difluoro-4-[[5-[3-(4,5,6,7-tetrahydro-1H-imidazo[4,5-c]pyridin-2-yl)phenyl]tetrazol-2-yl]methyl]phenyl]-1,3,4-oxadiazole], the IC50 was 26 nM at recombinant human HDAC6 and 168000 nM on recombinant human HDAC1.

As to `NCc1ccc(-c2cn(Cc3c(F)cc(-c4nnc(C(F)F)o4)cc3F)nn2)cn1` [compound 101, (5-(1-(4-(5-(difluoromethyl)-1,3,4-oxadiazol-2-yl)-2,6-difluorobenzyl)-1H-1,2,3-triazol-4-yl)pyridin-2-yl)methanamine], the IC50 on recombinant human HDAC6 was 39 nM; on recombinant human HDAC1, > 200000 nM.

In the case of `O=C1CCc2c1cccc2-c1nnn(Cc2ccc(-c3nnc(C(F)F)o3)cc2)n1` [compound 208, 4-(2-(4-(5-(difluoromethyl)-1,3,4-oxadiazol-2-yl)benzyl)-2H-tetrazol-5-yl)-2,3-dihydro-1H-inden-1-one], the figures for the IC50 on recombinant human HDAC6 and on recombinant human HDAC1 were 132 nM and > 200000 nM, respectively.

For `FC(F)c1nnc(-c2ccc(Cn3nnc(-c4ccc(N5CCNCC5)nc4)n3)cc2)o1` [compound 148, 2-(difluoromethyl)-5-(4-((5-(6-(piperazin-1-yl)pyridin-3-yl)-2H-tetrazol-2-yl)methyl)phenyl)-1,3,4-oxadiazole], the IC50 on recombinant human HDAC6 was 63 nM; on recombinant human HDAC1 it was > 200000 nM.

On to `CC(C)(C)OC(=O)N1CCC2(C1)C(=O)Nc1ccc(-c3cn(Cc4ccc(-c5nnc(C(F)F)o5)cc4)nn3)cc12` (stereo not drawn) [compound 177, tert-butyl 5-(1-(4-(5-(difluoromethyl)-1,3,4-oxadiazol-2-yl)benzyl)-1H-1,2,3-triazol-4-yl)-2-oxospiro[indoline-3,3′-pyrrolidine]-1′-carboxylate], for which the values for the IC50 on recombinant human HDAC6 and on recombinant human HDAC1 were 89 nM and > 200000 nM, respectively.

Take `O=C(Nc1cccc(-c2nnn(Cc3ccc(-c4nnc(C(F)F)o4)cc3)n2)c1)c1ccccc1` [compound 156, N-(3-(2-(4-(5-(difluoromethyl)-1,3,4-oxadiazol-2-yl)benzyl)-2H-tetrazol-5-yl)phenyl)benzamide]: the IC50 on recombinant human HDAC6 is 70 nM; at recombinant human HDAC1, > 200000 nM.
